# Source: PMC8523698, “Preclinical characterization of an intravenous coronavirus 3CL protease inhibitor for the potential treatment of COVID19” (Nature Communications, 2021)
# Where “and” joins values, the source holds several entries; their conditions need not be identical. Equal values may be shown once.
# What was measured:
# [1] = Monkey pharmacokinetic study; conditions: for Vd: Vdss; for AUC(0-t): po, AUCt; for Total Concn: monkey plasma; for Total Concn in plasma: 1mg/kg IV PF-00835231 dosed (crossover), individual animals and mean
# [2] = Human blood hemocompatibility (hemolysis, flocculation)
# [3] = tested on: CYP3A4/5; assay: Reversible CYP inhibition in human liver microsomes; conditions: CYP 3A4/5 (mdz)
# [4] = monkey, PF-00835231 active dosed 1mg/kg intravenous (crossover), individual monkeys, 1 mg/kg
structure (smiles),measurement,setting,value
COc1cccc2[nH]c(C(=O)N[C@@H](CC(C)C)C(=O)N[C@@H](C[C@@H]3CCNC3=O)C(=O)CO)cc12 [PF-00835231],AUC(0-inf),"[1]; male, Cynomolgus, cynomolgus monkey, plasma, iv, 1 mg/kg, AUCinf, monkey, PF-00835231 active dosed 1mg/kg intravenous (crossover), individual monkeys",614 ng·h/mL
same,clearance,"[1]; male, Cynomolgus, cynomolgus monkey, plasma, iv, 1 mg/kg, Clearance, Mean, monkey, PF-00835231 active dosed 1mg/kg intravenous (crossover)",28.7 mL/min/kg
same,clearance,"[1]; male, Cynomolgus, cynomolgus monkey, plasma, iv, 1 mg/kg, Clearance, monkey, PF-00835231 active dosed 1mg/kg intravenous (crossover), individual monkeys",27.1 mL/min/kg
same,half-life,"[1]; male, Cynomolgus, cynomolgus monkey, plasma, iv, 1 mg/kg, Half life, Mean, monkey, PF-00835231 active dosed 1mg/kg intravenous (crossover)",0.92 h
same,half-life,"[1]; male, Cynomolgus, cynomolgus monkey, plasma, iv, 1 mg/kg, Half life, monkey, PF-00835231 active dosed 1mg/kg intravenous (crossover), individual monkeys",1.14 h
same,Vd,"[1]; male, Cynomolgus, cynomolgus monkey, plasma, iv, 1 mg/kg, Mean, monkey, PF-00835231 active dosed 1mg/kg intravenous (crossover)",1.43 L/kg
same,Vd,"[1]; male, Cynomolgus, cynomolgus monkey, plasma, iv, 1 mg/kg, monkey, PF-00835231 active dosed 1mg/kg intravenous (crossover), individual monkeys",1.34 L/kg
same,half-life,"[1]; male, cynomolgus monkey, plasma, iv, 1 mg/kg, Terminal T1/2, monkey IV (n=2, range), PF-07304814 […], PF-00835231 1.0mg/kg",< 2 h
same,Vd,"[1]; male, cynomolgus monkey, plasma, iv, 1 mg/kg, Mean, Monkey, 1mg/kg intravenous",1.43 L/kg
same,Vd,"[1]; male, cynomolgus monkey, plasma, iv, 1 mg/kg, Monkey, 1mg/kg intravenous, individual animals",1.34 L/kg
same,Vd,"[1]; male, cynomolgus monkey, plasma, iv, 1 mg/kg, Monkey, Vdss input",1.4 L/kg
same,Vd,"[1]; male, cynomolgus monkey, plasma, iv, 1 mg/kg, monkey IV (n=2, range), PF-07304814 […], PF-00835231 1.0mg/kg",< 1.5 L/kg
same,clearance,"[1]; male, cynomolgus monkey, plasma, iv, Cl, monkey IV (n=2, range), PF-07304814 […], PF-00835231 1.0mg/kg",28.7 mL/min/kg
same,half-life,"[1]; male, cynomolgus monkey, plasma, iv, Terminal T1/2, monkey IV (n=2, range), PF-07304814 […], PF-00835231 1.0mg/kg",1.2 h
same,Vd,"[1]; male, cynomolgus monkey, plasma, iv, monkey IV (n=2, range), PF-07304814 […], PF-00835231 1.0mg/kg",1.4 L/kg
same,AUC(0-t),"[1]; male, cynomolgus monkey, plasma, 5 mg/kg, Mean, monkey, PF-00835231 5mg/kg PO dose",0.466 ng·h/mL
same,AUC(0-t),"[1]; male, cynomolgus monkey, plasma, 5 mg/kg, monkey, PF-00835231 5mg/kg PO dose, individual monkeys",0.328 ng·h/mL
same,Total Concn,"[1]; PF-00835231 active dosed 1mg/kg intravenous (crossover), time 0.5 h, individual monkeys, 1 mg/kg",212 ng/mL
same,Total Concn,"[1]; PF-00835231 active dosed 1mg/kg intravenous (crossover), time 1 h, individual monkeys, 1 mg/kg",124 ng/mL
same,Total Concn,"[1]; PF-00835231 active dosed 1mg/kg intravenous (crossover), time 2 h, individual monkeys, 1 mg/kg",47 ng/mL
same,Total Concn,"[1]; PF-00835231 active dosed 1mg/kg intravenous (crossover), time 4 h, individual monkeys, 1 mg/kg",14 ng/mL
same,Total Concn,"[1]; PF-00835231 active dosed 1mg/kg intravenous (crossover), time 7 h, individual monkeys, 1 mg/kg",2.25 ng/mL
same,Urine Concn,"[1]; monkey urine 0-7h, PF-00835231 active dosed 1mg/kg intravenous (crossover), individual monkeys, 1 mg/kg",260 ng/mL and 304 ng/mL
same,Urine Concn,"[1]; monkey urine 7-24h, PF-00835231 active dosed 1mg/kg intravenous (crossover), individual monkeys, 1 mg/kg",6.76 ng/mL and 33.1 ng/mL
same,Total Concn in plasma,"[1]; monkey, Time 0.083, 1 mg/kg",1220 ng/mL and 1225 ng/mL
same,Total Concn in plasma,"[1]; monkey, Time 0.25, 1 mg/kg",442 ng/mL and 365 ng/mL
same,Total Concn in plasma,"[1]; monkey, Time 0.5, 1 mg/kg",212 ng/mL and 183 ng/mL
same,Total Concn in plasma,"[1]; monkey, Time 1, 1 mg/kg",124 ng/mL and 107 ng/mL
same,Total Concn in plasma,"[1]; monkey, Time 2, 1 mg/kg",47 ng/mL and 46 ng/mL
same,Total Concn in plasma,"[1]; monkey, Time 4, 1 mg/kg",14 ng/mL and 13 ng/mL
same,Total Concn in plasma,"[1]; monkey, Time 7, 1 mg/kg",2.87 ng/mL and 2.25 ng/mL and 2.6 ng/mL
same,AUCt,"[1]; monkey, PF-00835231 5mg/kg PO dose, individual monkeys, 5 mg/kg",0.603 ng·h/mL
same,AUCinf,[1]; [4],552 ng·h/mL
same,Half life,[1]; [4],1.27 h
same,Vdss,[1]; [4],1.51 L/kg
same,clearance,[1]; [4],30.2 mL/min/kg
same,Oral F%,"[1]; monkey, 5mg/kg PO vs 1.0mg/kg IV",< 0.1% and < 2%
same,hemolysis or flocculation/turbidity parameters,[2],no effect on hemolysis or flocculation/turbidity parameters
same,Percent of Control Activity,"[3]; 0.214 µM, 30-Minute Preincubation",105.3%
same,Percent of Control Activity,"[3]; 0.979 µM, 30-Minute Preincubation",106.9%
same,Percent of Control Activity,"[3]; 2.09 µM, 30-Minute Preincubation",110.4%
same,Percent of Control Activity,"[3]; 4.48 µM, 30-Minute Preincubation",94.3%
same,Percent of Control Activity,"[3]; 20.5 µM, 30-Minute Preincubation",83.5%
same,Percent of Control Activity,"[3]; 20.5 µM, Zero-Minute Preincubation",117.3%
same,Percent of Control Activity,"[3]; 43.8 µM, 30-Minute Preincubation",84.8%
same,Percent of Control Activity,"[3]; 93.5 µM, 30-Minute Preincubation",72.6%
